Laboratory results: ChEMBL document CHEMBL1201862, “PubChem BioAssay data set” (2004)
The source made the active and inactive calls. For most assays here, no stated cut-off is given here; in the data, actives have a measured EC50 and inactives only a lower limit.

Tests used:
Streptococcus = test: Group A Streptococcus viability loss, dose response, counter-screen for streptokinase expression inhibitor project, luminescence, BacTiterGlo (AID 1915); format: functional, organism-based;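 further: potency for reduction of bacterial viability or growth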
[1] = tested on: Streptococcus sp. 'group A'; test: growth inhibition of control SK(-) GAS strain, dose response, counter-screen for streptokinase expression inhibitor project, luminescence, kanamycin, BacTiterGlo, confirmation (AID 1900); format: functional, organism-based
Streptokinase A = target: T1, Streptokinase A (Streptococcus pyogenes serotype M1, UniProt P10520); test: S. pyogenes streptokinase expression inhibitors, potency, dose response, plasminogen activation absorbance, OD405 (AID 1914); format: functional, Streptococcus pyogenes M1 GAS;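 further: secreted streptokinase activity via plasminogen activation per viability signal from cell pellet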
T1 sequence (P10520 whole entry): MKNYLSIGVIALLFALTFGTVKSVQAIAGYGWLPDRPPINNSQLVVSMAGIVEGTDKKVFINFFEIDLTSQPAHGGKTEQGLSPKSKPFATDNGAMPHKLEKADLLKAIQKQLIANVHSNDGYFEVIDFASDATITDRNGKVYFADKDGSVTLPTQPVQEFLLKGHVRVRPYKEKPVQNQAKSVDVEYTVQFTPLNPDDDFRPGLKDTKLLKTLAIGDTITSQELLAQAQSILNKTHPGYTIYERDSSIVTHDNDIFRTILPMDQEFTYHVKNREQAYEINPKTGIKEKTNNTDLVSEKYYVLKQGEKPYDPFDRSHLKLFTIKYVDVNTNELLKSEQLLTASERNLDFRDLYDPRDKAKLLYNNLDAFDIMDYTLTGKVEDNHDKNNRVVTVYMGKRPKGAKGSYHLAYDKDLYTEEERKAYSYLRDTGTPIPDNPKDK

[2] = inhibitors of intracellular T. cruzi replication, confirmation, NIH3T3 host cells, beta-gal luminescence (AID 2044); format: functional, cell-based;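 further: intracellular parasites grown in NIH/3T3 mouse fibroblasts as host cells; luminescent beta-galactosidase reporter signal from transgenic T. cruzi replicating inside host cells; inhibitors lower the luminescence signal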
[3] = cytotoxicity toward NIH3T3 fibroblasts, dose response, counter-screen, cell-based, ATP luminescence, mouse fibroblasts (AID 2010); format: functional;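 further: cells exposed to compound for about 90 hours before reading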
[4] = HEp-2 cell cytotoxicity, dose response, cytotoxicity control for RSV inhibitor project, HTS (AID 2410); format: functional; conditions: human respiratory syncytial virus
Cytochrome P450 1A2 = target: T2, Cytochrome P450 1A2 (Homo sapiens, UniProt P05177);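 further: PubChem cytochrome P450 panel assay, CYP1A2 panel member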
T2 sequence (P05177 whole entry): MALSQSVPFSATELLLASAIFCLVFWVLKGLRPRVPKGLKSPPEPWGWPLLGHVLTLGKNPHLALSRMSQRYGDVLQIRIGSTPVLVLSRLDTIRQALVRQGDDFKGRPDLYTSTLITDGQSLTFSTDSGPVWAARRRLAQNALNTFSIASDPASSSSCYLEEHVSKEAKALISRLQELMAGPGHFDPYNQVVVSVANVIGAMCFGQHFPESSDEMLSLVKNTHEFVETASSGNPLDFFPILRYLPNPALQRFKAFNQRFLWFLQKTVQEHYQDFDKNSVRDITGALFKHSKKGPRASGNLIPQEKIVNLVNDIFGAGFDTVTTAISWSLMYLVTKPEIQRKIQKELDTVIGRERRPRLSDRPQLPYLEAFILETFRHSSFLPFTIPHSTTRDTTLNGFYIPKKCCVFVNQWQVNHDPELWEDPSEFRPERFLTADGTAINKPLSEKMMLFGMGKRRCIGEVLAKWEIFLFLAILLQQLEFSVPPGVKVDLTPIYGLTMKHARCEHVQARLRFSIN

INS1 = test: beta cell apoptosis inhibitors, cytokine rescue, dose response, luminescence, retest (AID 449756); format: functional, cell-based; conditions: Rattus norvegicus;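 further: cell death triggered by IL-1 beta plus TNF-alpha plus IFN-gamma mixture; protective hits raise ATP signal compared with cytokine alone wells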
[5] = Luminescence Cell-Based Dose Retest to Confirm Inhibitors of Cancer Stem Cells. [Related pubchem assays (depositor defined):AID2717, AID2721]; format: functional; conditions: Homo sapiens

SMILES: O=C(NCCc1ccccn1)c1ccc(OC2CCN(Cc3ccccn3)CC2)cc1
- EC50 (Streptococcus): > 150 µM (not active)
- EC50 [1]: > 150 µM (not active)
- EC50 (Streptokinase A): > 150 µM (not active)

SMILES: Cc1ccc(-c2cc(C(F)F)nc(NCc3cccnc3)n2)cc1
- EC50 [2]: 3.05 µM (active)
- EC50 [3]: > 60 µM (not active)

SMILES: CCOC(=O)CC(=O)CSc1nc(N)c(C#N)c(-c2ccc(Cl)cc2)c1C#N
- CC50 [4]: 23.6 µM (active)

SMILES: Cc1cc(C)nc(NC(=N)NCCc2c[nH]c3ccccc23)n1
- EC50 (Streptococcus): > 150 µM (not active)
- EC50 [1]: 7.95 µM (active)
- EC50 (Streptokinase A): > 150 µM (not active)

SMILES: Cc1ccc(CN(Cc2cccnc2)C(=O)CN2C(=O)COc3ccccc32)o1
- EC50 [2]: 0.276 µM (active)
- EC50 [3]: > 60 µM (not active)

SMILES: O=C(Nc1ccccc1-c1nc2ccccc2[nH]1)c1ccc(S(=O)(=O)N2CCCCC2)cc1
- AC50 (Cytochrome P450 1A2): 3.55 µM (inconclusive)

SMILES: Cc1c(CCC(=O)O)c(=O)oc2cc3occ(-c4ccc(Cl)cc4)c3cc12
- EC50 (Streptococcus): > 150 µM (not active)
- EC50 [1]: 7.96 µM (active)
- EC50 (Streptokinase A): > 150 µM (not active)

SMILES: COc1ccc(C(=O)N/N=C(\C)Cn2nc([N+](=O)[O-])cc2C)cc1
- AC50 (Cytochrome P450 1A2): 20 µM (inconclusive)

SMILES: O=C(c1ccco1)N1CCC2(CCCN(Cc3ccncc3)C2)CC1
- AC50 (Cytochrome P450 1A2): 15.8 µM (inconclusive)

SMILES: CCNC(=O)COC(=O)/C=C/c1c(C)nn(Cc2cccc(OC)c2)c1Cl
- CC50 [4]: > 50 µM (active)

SMILES: O=C(NNC(=S)NC(=O)c1ccccc1)c1cccc([N+](=O)[O-])c1
- EC50 (Streptococcus): 8.75 µM (active)
- EC50 [1]: 3.85 µM (active)

SMILES: COc1cc(C(=O)NCCCN(C)C)ccc1OCC(=O)Nc1cccc(C(F)(F)F)c1
- EC50 [2]: 1.23 µM (active)
- EC50 [3]: > 60 µM (not active)

SMILES: Cc1cc(C(=O)CSc2nnc(N)s2)c(C)n1CCc1ccc(Cl)cc1
- CC50 [4]: 17.1 µM (active)

SMILES: COCC(C)n1c(SCc2ccc(OC)c(F)c2)nc2ccccc2c1=O (stereo unspecified)
- EC50 [2]: 2.17 µM (active)
- EC50 [3]: > 60 µM (not active)

SMILES: N#CCCn1c(=O)c(-c2ccccc2)nc2cnc(Nc3ccccc3)nc21
- AC50 (Cytochrome P450 1A2): 0.794 µM (inconclusive)

SMILES: CC(C)[C@H](NC(=O)N1CC(=O)Nc2ccccc21)C(=O)N[C@@H](Cc1ccccc1)C(=O)O
- EC50 (Streptococcus): > 150 µM (not active)
- EC50 [1]: > 150 µM (not active)
- EC50 (Streptokinase A): > 150 µM (not active)

SMILES: CCOc1ccc(CNCCCSc2ncccn2)cc1
- EC50 [2]: 0.909 µM (active)
- EC50 [3]: 9.74 µM (active)

SMILES: CN(C)CCCNS(=O)(=O)c1ccc(NC2CCCCCC2)c([N+](=O)[O-])c1
- AC50 (INS1): 6.22 µM (active)

SMILES: O=C(c1cc2sccc2n1Cc1ccc(F)cc1)N1CCc2ccccc21
- CC50 [4]: 36.2 µM (active)

SMILES: O=C(Nc1nc2cc3c(cc2s1)OCO3)C1CC1
- EC50 [2]: 1.3 µM (active)
- EC50 [3]: > 60 µM (not active)

SMILES: COc1ccc(Br)cc1C(=O)Nc1cccc(C)c1
- AC50 [5]: > 195 µM (inactive)

SMILES: CC1CCN(c2ccc(NC(=O)c3ccc([N+](=O)[O-])o3)cc2)CC1
- EC50 [2]: > 16 µM (not active)
- AC50 (INS1): 10.3 µM (active)
- EC50 [3]: 4.41 µM (active)

SMILES: O=C(O)c1ccccc1NCn1c(=S)sc2ccccc21
- AC50 (Cytochrome P450 1A2): 0.501 µM (inconclusive)

SMILES: CCN(CC)S(=O)(=O)c1ccc(Cl)c(C(=O)Nc2ccc(Cl)cc2[N+](=O)[O-])c1
- AC50 (INS1): 7.83 µM (active)

SMILES: COC(=O)NC(=S)Nc1ccc(Oc2ccc(Cl)cc2)c(Cl)c1
- EC50 [2]: 2.41 µM (active)
- EC50 [3]: > 60 µM (not active)

SMILES: C[C@H](CO)N1C[C@H](C)[C@@H](CN(C)S(=O)(=O)c2ccccc2)Oc2ccc(NC(=O)Nc3ccc(C(F)(F)F)cc3)cc2C1=O
- AC50 [5]: 8.42 µM (active)

SMILES: COc1cc([N+](=O)[O-])cc(/C=N/NC(=O)C(C)Nc2cccc(C)c2)c1O (stereo unspecified)
- EC50 (Streptococcus): > 150 µM (not active)
- EC50 [1]: 10.9 µM (active)
- EC50 (Streptokinase A): > 150 µM (not active)

SMILES: CN(C)CC(C)(C)C/N=C/c1c(O)[nH]c2ccccc12
- EC50 [2]: 0.152 µM (active)
- EC50 [3]: > 30 µM (not active)

SMILES: Cc1sc2[nH]c(-c3ccccn3)nc(=O)c2c1-c1ccccc1
- EC50 (Streptokinase A): > 150 µM (not active)

SMILES: CCC(C)Sc1ccc(-c2nc3ccc(C)cn3c2NC2CCCCC2)cc1 (stereo unspecified)
- EC50 [2]: 0.885 µM (active)
- EC50 [3]: > 60 µM (not active)

SMILES: CN1[C@@H]2CC[C@H]1CC(OC(=O)c1cc(Cl)cc(Cl)c1)C2 (stereo partly specified)
- AC50 (Cytochrome P450 1A2): 31.6 µM (inconclusive)

SMILES: COc1cc(NC(=O)Nc2cccc(Cl)c2)c(OC)cc1NC(=O)CN1CCCCC1
- AC50 [5]: 4.44 µM (active)

SMILES: COc1ccc2nc(NC(=S)NC(=O)c3ccco3)sc2c1
- CC50 [4]: > 50 µM (active)

SMILES: Cc1ccc(C)c(S(=O)(=O)NC(C)C(=O)Nc2ccc(-c3nc4ccccc4s3)cc2)c1 (stereo unspecified)
- AC50 (Cytochrome P450 1A2): 15.8 µM (inconclusive)

SMILES: Cc1cccc(-n2c(N)c(-c3nc4ccccc4n3C)c3nc4ccccc4nc32)c1
- EC50 (Streptococcus): > 150 µM (not active)
- EC50 [1]: 3.66 µM (active)
- EC50 (Streptokinase A): > 150 µM (not active)

SMILES: O=C(CCn1ccnc1)Nc1ccc2ccccc2c1
- EC50 [2]: 1.63 µM (active)
- EC50 [3]: > 60 µM (not active)

SMILES: NS(=O)(=O)c1ccc(NCc2cnc3ccccc3c2)cc1
- AC50 (Cytochrome P450 1A2): 1.58 µM (inconclusive)

SMILES: FCCCOc1ccc(-c2nccc(-c3ccc(F)cc3)n2)cc1
- CC50 [4]: 26 µM (active)

SMILES: CCCOc1ccc2c3c(c(=O)oc2c1OCCC)CCCC3
- CC50 [4]: 23.5 µM (active)
- AC50 (INS1): 13.7 µM (active)

SMILES: CN(C)S(=O)(=O)Oc1ccsc1C(=O)Nc1cccc(Cl)c1Cl
- EC50 [2]: 3.47 µM (active)
- EC50 [3]: > 60 µM (not active)

SMILES: COCc1cc(C)nc2sc(C(=O)NN)c(-n3cccc3)c12
- CC50 [4]: 14.3 µM (active)

SMILES: Cc1nc(O)c(C#N)c(Nc2ccc(Cl)cc2)n1
- CC50 [4]: 32.3 µM (active)

SMILES: COc1ccc(OC)c(NC(=O)c2cccc(Cn3cc(Br)c([N+](=O)[O-])n3)c2)c1
- EC50 [2]: 0.794 µM (active)
- EC50 [3]: 9.07 µM (active)

SMILES: COc1ccc(/C=C2\SC(=S)N(NS(=O)(=O)c3ccccc3)C2=O)c(OC)c1
- CC50 [4]: 35.4 µM (active)

SMILES: Cc1ccc(C)c(N2CCN(C(=O)c3ccc4c(c3)c(C)c(C)n4C)CC2)c1
- AC50 [5]: 6.01 µM (active)

SMILES: Cc1ccc(C)c(OCCCCN2CCNCC2)c1C
- AC50 [5]: 1.03 µM (active)

SMILES: CNc1nc(OC)nc(N(C#N)CN2C(=O)c3ccccc3S2(=O)=O)n1
- EC50 (Streptococcus): > 150 µM (not active)
- EC50 [1]: > 150 µM (not active)
- EC50 (Streptokinase A): > 150 µM (not active)

SMILES: Cc1cc(C)nc(NC(=O)/C=C/c2ccc3c(c2)OCO3)c1
- AC50 [5]: 1.91 µM (active)

SMILES: CCOCCCN=C(S)N1CCCN(c2nc3cc(C)cc(C)c3cc2C#N)CC1
- CC50 [4]: 31.4 µM (active)

SMILES: COc1ccc(NC(=O)/C=C/c2cccc(F)c2)cn1
- CC50 [4]: 34.7 µM (active)

SMILES: CCOC(=O)C1(S(=O)(=O)c2ccc(Cl)cc2)CCN(Cc2ccc(Cl)cc2)CC1
- AC50 (Cytochrome P450 1A2): 31.6 µM (inconclusive)
